Reference: BindingDB's records for PubMed 34998058 (Central South University, 2022)

Legend:
[1] = Inhibition of P-gp in human K562 cells assessed as adriamycin IC50 at 10 ug/ml
[2] = Inhibition of P-gp in human K562/A02 cells assessed as adriamycin IC50 at 10 ug/ml
[3] = Inhibition of P-gp in human K562/A02 cells assessed as adriamycin IC50 at 8 ug/ml
[4] = Inhibition of P-gp in human K562 cells assessed as adriamycin IC50 at 8 ug/ml
[5] = Inhibition of P-gp in human K562/A02 cells assessed as adriamycin IC50 at 4 ug/ml
[6] = Inhibition of P-gp in human K562 cells assessed as adriamycin IC50 at 2 ug/ml
[7] = Inhibition of P-gp in human K562 cells assessed as adriamycin IC50 at 4 ug/ml
[8] = Inhibition of P-gp in human K562 cells assessed as adriamycin IC50 at 6 ug/ml
[9] = Inhibition of P-gp in human K562/A02 cells assessed as adriamycin IC50 at 6 ug/ml
[10] = Inhibition of P-gp in human K562/A02 cells assessed as adriamycin IC50 at 2 ug/ml
Maltase-glucoamylase = Maltase-glucoamylase (Homo sapiens, UniProt O43451); experiment: Inhibition of alpha-glucosidase (unknown origin)
Sequence of Maltase-glucoamylase (O43451 whole entry): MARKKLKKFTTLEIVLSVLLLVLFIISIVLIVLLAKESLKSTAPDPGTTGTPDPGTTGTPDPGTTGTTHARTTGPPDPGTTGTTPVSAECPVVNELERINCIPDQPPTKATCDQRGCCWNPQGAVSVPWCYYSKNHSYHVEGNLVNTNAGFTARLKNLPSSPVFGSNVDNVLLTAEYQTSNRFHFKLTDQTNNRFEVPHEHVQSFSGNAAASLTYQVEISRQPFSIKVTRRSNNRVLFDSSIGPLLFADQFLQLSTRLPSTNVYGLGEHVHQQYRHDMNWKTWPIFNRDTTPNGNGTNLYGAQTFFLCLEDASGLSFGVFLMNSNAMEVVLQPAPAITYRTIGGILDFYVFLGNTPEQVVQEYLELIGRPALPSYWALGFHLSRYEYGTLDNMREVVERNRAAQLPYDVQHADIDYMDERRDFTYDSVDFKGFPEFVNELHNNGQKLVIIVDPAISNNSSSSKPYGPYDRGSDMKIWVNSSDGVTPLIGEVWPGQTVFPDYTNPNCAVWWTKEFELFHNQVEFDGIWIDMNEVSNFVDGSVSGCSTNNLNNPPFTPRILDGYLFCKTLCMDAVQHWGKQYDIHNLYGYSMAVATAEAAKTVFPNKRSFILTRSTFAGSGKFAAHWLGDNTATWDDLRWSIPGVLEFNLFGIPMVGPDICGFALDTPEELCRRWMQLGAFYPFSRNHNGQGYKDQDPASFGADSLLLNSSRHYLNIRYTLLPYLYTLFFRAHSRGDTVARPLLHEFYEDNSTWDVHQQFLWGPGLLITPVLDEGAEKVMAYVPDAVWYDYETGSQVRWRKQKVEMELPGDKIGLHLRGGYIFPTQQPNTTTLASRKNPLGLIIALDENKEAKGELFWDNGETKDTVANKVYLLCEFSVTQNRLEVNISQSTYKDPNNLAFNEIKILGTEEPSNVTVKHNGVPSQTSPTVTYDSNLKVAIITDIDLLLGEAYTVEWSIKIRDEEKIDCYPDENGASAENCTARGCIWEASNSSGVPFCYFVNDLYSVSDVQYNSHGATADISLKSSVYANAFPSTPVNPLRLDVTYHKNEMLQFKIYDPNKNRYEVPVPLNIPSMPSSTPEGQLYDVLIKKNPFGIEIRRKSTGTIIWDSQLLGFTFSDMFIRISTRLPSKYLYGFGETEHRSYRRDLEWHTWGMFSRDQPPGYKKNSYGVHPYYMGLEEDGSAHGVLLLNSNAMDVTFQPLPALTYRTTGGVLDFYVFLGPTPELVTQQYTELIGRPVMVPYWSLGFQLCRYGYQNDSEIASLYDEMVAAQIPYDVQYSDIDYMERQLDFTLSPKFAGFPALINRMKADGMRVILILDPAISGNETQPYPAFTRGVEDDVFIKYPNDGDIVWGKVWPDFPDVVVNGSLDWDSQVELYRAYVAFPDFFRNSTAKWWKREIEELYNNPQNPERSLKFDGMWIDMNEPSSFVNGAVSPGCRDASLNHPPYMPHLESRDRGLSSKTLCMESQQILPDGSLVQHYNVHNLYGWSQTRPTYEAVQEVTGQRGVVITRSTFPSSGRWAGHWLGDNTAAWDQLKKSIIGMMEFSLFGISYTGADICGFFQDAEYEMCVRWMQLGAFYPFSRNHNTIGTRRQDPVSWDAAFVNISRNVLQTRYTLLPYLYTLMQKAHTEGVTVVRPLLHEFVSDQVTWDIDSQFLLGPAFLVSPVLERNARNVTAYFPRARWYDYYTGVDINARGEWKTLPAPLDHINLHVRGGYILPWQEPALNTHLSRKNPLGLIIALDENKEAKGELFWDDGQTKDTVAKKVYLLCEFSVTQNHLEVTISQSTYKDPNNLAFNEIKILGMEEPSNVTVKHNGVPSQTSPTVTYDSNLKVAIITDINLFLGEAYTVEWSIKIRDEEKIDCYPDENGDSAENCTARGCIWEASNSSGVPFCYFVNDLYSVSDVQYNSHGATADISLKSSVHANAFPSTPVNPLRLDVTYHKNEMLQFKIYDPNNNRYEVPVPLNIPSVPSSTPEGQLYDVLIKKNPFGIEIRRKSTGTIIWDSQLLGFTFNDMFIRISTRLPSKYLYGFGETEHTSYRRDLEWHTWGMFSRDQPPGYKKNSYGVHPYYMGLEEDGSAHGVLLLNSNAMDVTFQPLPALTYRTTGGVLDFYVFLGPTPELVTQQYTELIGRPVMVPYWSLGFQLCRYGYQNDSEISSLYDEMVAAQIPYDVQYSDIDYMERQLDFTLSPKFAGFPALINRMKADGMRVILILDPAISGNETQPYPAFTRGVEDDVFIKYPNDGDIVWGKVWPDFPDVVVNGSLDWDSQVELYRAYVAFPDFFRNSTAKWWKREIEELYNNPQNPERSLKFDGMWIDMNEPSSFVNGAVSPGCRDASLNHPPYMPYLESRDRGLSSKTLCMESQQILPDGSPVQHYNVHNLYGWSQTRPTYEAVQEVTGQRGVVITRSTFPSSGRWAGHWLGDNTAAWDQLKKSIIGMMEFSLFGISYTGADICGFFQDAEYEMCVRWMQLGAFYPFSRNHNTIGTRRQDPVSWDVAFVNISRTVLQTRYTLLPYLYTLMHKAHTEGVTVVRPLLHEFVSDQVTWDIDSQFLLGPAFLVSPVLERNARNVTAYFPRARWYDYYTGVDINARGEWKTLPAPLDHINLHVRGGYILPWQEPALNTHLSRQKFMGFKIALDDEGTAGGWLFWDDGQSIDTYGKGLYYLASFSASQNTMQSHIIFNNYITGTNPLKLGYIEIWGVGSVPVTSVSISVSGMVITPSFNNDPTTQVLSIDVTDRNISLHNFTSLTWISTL

Cc1ccc2[nH]c(=O)c(C)nc2c1 showed an IC50 [1] of 0.688 µM, an IC50 [2] of 7.8 µM and an IC50 [3] of 8.95 µM. For the same molecule, the IC50 [4] was 0.746 µM, the IC50 [5] was 15 µM and the IC50 [6] was 0.803 µM. The IC50 [7] was 0.746 µM, the IC50 [8] was 0.516 µM and the IC50 [9] was 10.5 µM. It also gave an IC50 [10] of 20.1 µM.
In the case of COc1ccc(C(=O)Nc2cccc(C(=O)/C=C3/Nc4ccccc4NC3=O)c2)cc1, the IC50 (Maltase-glucoamylase) is reported as 166 µM.
With COc1ccc(C2SCC(=O)N2c2ccc3nc(Cc4ccc(O)cc4)c(=O)[nH]c3c2)cc1 (centres undefined) the IC50 (Maltase-glucoamylase) was 276 µM.
Molecule COc1cccc(/C=N/Nc2nc3ccccc3[nH]c2=O)c1 has an IC50 (Maltase-glucoamylase) of 13.9 µM.
With Cc1nc2cc(F)ccc2[nH]c1=O the IC50 [1] was 0.561 µM, the IC50 [2] was 6.28 µM and the IC50 [3] was 5.78 µM. The IC50 [4] was 0.729 µM, the IC50 [5] was 9.03 µM and the IC50 [6] was 0.785 µM. It also gave an IC50 [7] of 0.673 µM, an IC50 [8] of 0.841 µM and an IC50 [9] of 7.52 µM. For the same molecule, the IC50 [10] was 12.9 µM.
O=c1[nH]c2ccccc2nc1N/N=C/c1cccs1 showed an IC50 (Maltase-glucoamylase) of 9.99 µM.
Molecule Cc1nc2ccccc2n(CC(=O)N/N=C/c2ccc(OCCn3cc(CN4CCCCC4)nn3)cc2)c1=O has an IC50 (Maltase-glucoamylase) of 42.2 µM.
In the case of CC(C)c1nc2ccc(N3C(=O)CSC3c3ccc([N+](=O)[O-])cc3)cc2[nH]c1=O (centres undefined), the IC50 (Maltase-glucoamylase) is reported as 301 µM.
Molecule Cc1ccc(-n2cc(COc3ccc(/C=N/NC(=O)Cn4c(=O)c(C)nc5ccccc54)cc3)nn2)cc1 has an IC50 (Maltase-glucoamylase) of 48.2 µM.
With Cc1nc2ccccc2n(CC(=O)N/N=C/c2ccc(OCCn3cc(CN4CCCC4)nn3)cc2)c1=O the IC50 (Maltase-glucoamylase) was 45.8 µM.
O=c1[nH]c2ccccc2n2c(-c3ccc(O)cc3O)ccc12 gave an IC50 (Maltase-glucoamylase) of 12.9 µM.
For Cc1ccc(NC(=O)Cn2c(=O)c(C)nc3ccccc32)c([N+](=O)[O-])c1, the IC50 (Maltase-glucoamylase) was 83.8 µM.
Work on Cc1nc2ccccc2n(CC(=O)N/N=C/c2ccc(OCCn3cc(CN4CCOCC4)nn3)cc2)c1=O yielded an IC50 (Maltase-glucoamylase) of 41.3 µM.
O=c1[nH]c2ccccc2n2c(-c3ccc(Cl)c(Cl)c3)ccc12 showed an IC50 (Maltase-glucoamylase) of 13 µM.
Work on O=C(/C=C/c1ccccc1)/C=C1/Nc2ccccc2NC1=O yielded an IC50 (Maltase-glucoamylase) of 40.1 µM.
O=c1[nH]c2ccccc2n2c(-c3ccc([N+](=O)[O-])cc3[N+](=O)[O-])ccc12 showed an IC50 (Maltase-glucoamylase) of 23 µM.
